Activity calls are given as the source filed them. Rule as the data show it, for most assays here: actives have a measured IC50 and inactives only a lower limit.
Legend:
[1] = target: T1, Ubiquitin-conjugating enzyme E2 N (Homo sapiens, UniProt P61088); format: functional;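 also: Dose-response confirmation in a TR-FRET assay detecting UBC13-driven polyubiquitin chain formation, inhibition measured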
T1 sequence (P61088 whole entry): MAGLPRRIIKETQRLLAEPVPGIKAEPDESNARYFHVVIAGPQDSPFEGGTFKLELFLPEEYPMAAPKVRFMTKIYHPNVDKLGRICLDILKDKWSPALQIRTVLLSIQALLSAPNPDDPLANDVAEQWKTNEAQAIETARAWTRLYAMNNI

[2] = target: DNA dC->dU-editing enzyme APOBEC-3G (Homo sapiens, UniProt Q9HC16); assay: Dose Response confirmation of small molecule APOBEC3G DNA Deaminase Inhibitors via a fluorescence-based single-stranded DNA deaminase assay. [Related pubchem assays (depositor defined):AID493012, AID493028]; format: functional
[3] = target: Glyceraldehyde-3-phosphate dehydrogenase (Homo sapiens, UniProt P04406)
Leucine aminopeptidase = target: T2, Leucine aminopeptidase (Plasmodium falciparum 3D7, UniProt Q8IL11); assay: P. falciparum M17LAP inhibitors, primary screen, biochemical, fluorogenic H-Leu-NHMec substrate, 1536-well (AID 1619); format: functional
T2 sequence (Q8IL11 whole entry): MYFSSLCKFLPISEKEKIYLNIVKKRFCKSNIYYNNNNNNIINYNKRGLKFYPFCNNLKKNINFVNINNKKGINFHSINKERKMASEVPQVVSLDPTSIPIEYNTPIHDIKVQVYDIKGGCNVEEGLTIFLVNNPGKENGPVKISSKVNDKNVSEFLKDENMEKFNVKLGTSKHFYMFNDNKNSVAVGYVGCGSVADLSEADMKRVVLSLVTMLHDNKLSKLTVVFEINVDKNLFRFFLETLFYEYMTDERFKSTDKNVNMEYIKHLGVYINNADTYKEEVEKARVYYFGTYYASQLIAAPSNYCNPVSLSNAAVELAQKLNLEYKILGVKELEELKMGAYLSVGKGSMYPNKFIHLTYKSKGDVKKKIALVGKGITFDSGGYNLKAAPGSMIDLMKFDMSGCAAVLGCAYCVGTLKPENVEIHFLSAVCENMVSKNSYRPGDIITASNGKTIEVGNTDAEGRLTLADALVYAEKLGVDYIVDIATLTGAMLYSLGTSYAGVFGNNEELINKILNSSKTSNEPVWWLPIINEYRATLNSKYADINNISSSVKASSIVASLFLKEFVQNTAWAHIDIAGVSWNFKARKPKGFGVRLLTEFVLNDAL

Chain of Glyceraldehyde-3-phosphate dehydrogenase (P04406 whole entry): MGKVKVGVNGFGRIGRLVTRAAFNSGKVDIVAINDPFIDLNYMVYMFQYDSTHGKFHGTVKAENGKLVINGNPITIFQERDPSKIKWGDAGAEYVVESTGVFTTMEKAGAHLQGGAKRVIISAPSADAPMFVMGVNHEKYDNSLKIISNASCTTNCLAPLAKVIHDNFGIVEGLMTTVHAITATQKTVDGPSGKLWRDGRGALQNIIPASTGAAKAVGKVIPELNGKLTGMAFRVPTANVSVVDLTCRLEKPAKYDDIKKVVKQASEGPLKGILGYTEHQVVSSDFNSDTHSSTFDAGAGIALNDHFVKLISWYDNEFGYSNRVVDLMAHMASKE
Chain of DNA dC->dU-editing enzyme APOBEC-3G (Q9HC16 whole entry): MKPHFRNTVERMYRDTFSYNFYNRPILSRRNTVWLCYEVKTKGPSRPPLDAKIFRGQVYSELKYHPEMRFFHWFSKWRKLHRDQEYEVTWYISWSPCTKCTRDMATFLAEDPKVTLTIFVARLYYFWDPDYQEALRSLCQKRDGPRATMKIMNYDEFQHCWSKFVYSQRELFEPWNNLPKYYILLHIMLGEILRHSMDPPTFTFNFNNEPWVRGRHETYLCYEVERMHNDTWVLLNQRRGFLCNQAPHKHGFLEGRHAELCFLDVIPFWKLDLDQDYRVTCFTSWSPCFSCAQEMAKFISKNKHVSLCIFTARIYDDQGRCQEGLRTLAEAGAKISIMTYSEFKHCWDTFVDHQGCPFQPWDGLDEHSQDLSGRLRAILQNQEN

| Structure (SMILES) | IC50 [3] | IC50 (Leucine aminopeptidase) | other results |
| --- | --- | --- | --- |
| N=C(N)Nc1ccc2[nH]c3c(c2c1)C[C@@]1(O)[C@H]2Cc4ccc(O)c5c4[C@@]1(CCN2CC1CC1)[C@H]3O5 | – | – | IC50 [1]: > 20 µM (inactive); IC50 [2]: 24.4 µM (active) |
| CCN1CCN(C2=C(Cl)C(=O)N(c3cccc(C)c3)C2=O)CC1 | > 50 µM (inconclusive) | – | – |
| O=C(CSc1nnc[nH]1)Nc1ccc2c(c1)CCC2 | – | 22.3 µM (active) | – |
| CCOc1ccc(C(CC(=O)O)C(=O)O)cc1 (stereo unspecified) | > 100 µM (not active) | – | – |
| Cc1ccc(NC(=O)CSc2ncc(S(=O)(=O)c3ccccc3)c(O)n2)cc1C | – | 4.56 µM (active) | – |

Reference: ChEMBL document CHEMBL1201862, “PubChem BioAssay data set” (2004)
